Reference: US8334294B2, “4,8-diphenyl-polyazanaphthalene derivatives” (Almirall, S.A., priority 2007, dated 2012)

Molecular target: T1, human p38alfa (SAPKa) enzyme (Homo sapiens, UniProt Q16539)
T1 construct: purchased University of Dundee
Assay: p38 enzymatic activity inhibition assay (FRET, ATF2 substrate)
Type: biochemical
Settings: 1 h pre-incubation; ATF2 0.62 μM, ATP 60 μM; 1 h at 25° C.; read-out: p38α IC50
Description: Enzymatic activity assay was performed in 96-well microtiter plates (Corning, catalog number #3686) using a total volume of 50 μl of an assay buffer composed of 50 mM HEPES pH 7.5, 10 mM MgCl2, 1.75 mM Na3VO4.
Various concentrations of the test compound or vehicle controls were pre-incubated for one hour with 0.055 μg/ml of the human p38alfa (SAPKa) enzyme (obtained from University of Dundee). The reaction started by addition of biotinylated ATF2 substrate and ATP in concentrations around their Km values (final concentration 0.62 μM and 60 μM respectively) and took place for one hour at 25° C. Addition of the detection reagents, streptavidin-XL665 and anti-phosphoresidue antibody coupled to Europium cryptate, caused the juxtaposition of the cryptate and the XL665 fluorophore, resulting in fluorescence energy transfer (FRET). The FRET intensity depends on the amount of bounded cryptate antibody, which is proportional to the extent of substrate phosphorylation. FRET intensity was measured using Victor 2V spectrofluorometer. Data were analyzed by non-linear regression (Hill equation) to generate a dose-response curve. The calculated IC50 value is the concentration of the test compound that caused a 50% decrease in the maximal FRET intensity.

T1 sequence (Q16539 whole entry): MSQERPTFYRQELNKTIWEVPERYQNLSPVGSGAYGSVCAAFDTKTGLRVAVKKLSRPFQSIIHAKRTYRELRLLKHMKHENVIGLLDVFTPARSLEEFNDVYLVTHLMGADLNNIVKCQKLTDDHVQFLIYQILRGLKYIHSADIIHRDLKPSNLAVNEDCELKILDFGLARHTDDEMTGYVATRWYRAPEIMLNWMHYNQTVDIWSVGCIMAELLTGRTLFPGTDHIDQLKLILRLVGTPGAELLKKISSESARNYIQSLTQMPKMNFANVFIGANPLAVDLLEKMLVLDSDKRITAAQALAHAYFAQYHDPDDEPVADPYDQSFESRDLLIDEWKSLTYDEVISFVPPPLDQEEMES

SMILES | IC50 [µM]
O=C(O)c1cc(-c2ccc(F)cc2F)c2cc[n+]([O-])c(-c3c(F)cccc3F)c2n1 [Example 2, 4-(2,4-Difluorophenyl)-8-(2,6-difluorophenyl)-1,7-naphthyridine-2-carboxylic acid 7-oxide] | 0.022
O=c1cc(-c2ccc(F)cc2Cl)c2cc[n+]([O-])c(-c3c(F)cccc3F)c2[nH]1 [Example 8, 4-(2-Chloro-4-fluorophenyl)-8-(2,6-difluorophenyl)-1,7-naphthyridin-2(1H)-one 7-oxide] | 0.006
CN(C)CCNc1cc(-c2ccc(F)cc2Cl)c2cc[n+]([O-])c(-c3c(F)cccc3F)c2n1 [Example 10, N′-[4-(2-Chloro-4-fluorophenyl)-8-(2,6-difluorophenyl)-7-oxido-1,7-naphthyridin-2-yl]-N,N-dimethylethane-1,2-diamine] | 0.014
O=c1cc(-c2ccc(F)cc2Cl)c2cc[n+]([O-])c(-c3c(Cl)cccc3Cl)c2[nH]1 [Example 12, 4-(2-Chloro-4-fluorophenyl)-8-(2,6-dichlorophenyl)-1,7-naphthyridin-2(1H)-one 7-oxide] | 0.0033
O=c1cc(-c2ccccc2Cl)c2ccnc(-c3c(Cl)cccc3Cl)c2[nH]1 [Example 17, 4-(2-Chlorophenyl)-8-(2,6-dichlorophenyl)-1,7-naphthyridin-2(1H)-one] | 0.013
O=c1cc(-c2ccccc2Cl)c2cc[n+]([O-])c(-c3c(Cl)cccc3Cl)c2[nH]1 [Example 18, 4-(2-Chlorophenyl)-8-(2,6-dichlorophenyl)-1,7-naphthyridin-2(1H)-one 7-oxide] | 0.015
CNc1cc(-c2ccccc2Cl)c2cc[n+]([O-])c(-c3c(Cl)cccc3Cl)c2n1 [Example 19, 4-(2-Chlorophenyl)-8-(2,6-dichlorophenyl)-N-methyl-1,7-naphthyridin-2-amine 7-oxide] | 0.008
CN(C)c1cc(-c2ccccc2Cl)c2cc[n+]([O-])c(-c3c(Cl)cccc3Cl)c2n1 [Example 20, 4-(2-Chlorophenyl)-8-(2,6-dichlorophenyl)-N,N-dimethyl-1,7-naphthyridin-2-amine 7-oxide] | 0.012
CS(=O)(=O)Nc1cc(-c2ccccc2Cl)c2cc[n+]([O-])c(-c3c(Cl)cccc3Cl)c2n1 [Example 21, N-[4-(2-Chlorophenyl)-8-(2,6-dichlorophenyl)-7-oxido-1,7-naphthyridin-2-yl]methanesulfonamide] | 0.066
Nc1cc(-c2ccccc2Cl)c2cc[n+]([O-])c(-c3c(Cl)cccc3Cl)c2n1 [Example 22, 4-(2-Chlorophenyl)-8-(2,6-dichlorophenyl)-1,7-naphthyridin-2-amine 7-oxide] | 0.085
[O-][n+]1ccc2c(-c3ccc(F)cc3Cl)ncnc2c1-c1c(F)cccc1F [Example 26, 4-(2-Chloro-4-fluorophenyl)-8-(2,6-difluorophenyl)pyrido[3,4-d]pyrimidine 7-oxide] | 0.035
[O-][n+]1ccc2c(-c3ccc(F)cc3Cl)ncnc2c1-c1c(Cl)cccc1Cl [Example 30, 4-(2-Chloro-4-fluorophenyl)-8-(2,6-dichlorophenyl)pyrido[3,4-d]pyrimidine 7-oxide] | 0.028
Nc1nc(-c2ccc(F)cc2Cl)c2cc[n+]([O-])c(-c3c(Cl)cccc3Cl)c2n1 [Example 32, 4-(2-Chloro-4-fluorophenyl)-8-(2,6-dichlorophenyl)pyrido[3,4-d]pyrimidin-2-amine 7-oxide] | 0.034
